One experiment deals with NAMPT (Homo sapiens, UniProt P43490). In words: Time-Resolved Fluorescence Resonance Energy Transfer (TR-FRET) Binding Assay of NAMPT with PRPP. The note with it: 200 μM PRPP and 2.5 mM ATP; 2 nM NAMPT, 2 nM probe, equilibrated 16 hours. The essentials: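 Compounds were equilibrated for 16 hours before TR-FRET readout, with substrates present (200 μM PRPP, 2.5 mM ATP) to permit enzymatic modification. Final mix: 2 nM His-tagged NAMPT, 2 nM probe, 1 nM Tb-anti-His antibody, 2% DMSO.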
NAMPT, sequence (P43490 whole entry): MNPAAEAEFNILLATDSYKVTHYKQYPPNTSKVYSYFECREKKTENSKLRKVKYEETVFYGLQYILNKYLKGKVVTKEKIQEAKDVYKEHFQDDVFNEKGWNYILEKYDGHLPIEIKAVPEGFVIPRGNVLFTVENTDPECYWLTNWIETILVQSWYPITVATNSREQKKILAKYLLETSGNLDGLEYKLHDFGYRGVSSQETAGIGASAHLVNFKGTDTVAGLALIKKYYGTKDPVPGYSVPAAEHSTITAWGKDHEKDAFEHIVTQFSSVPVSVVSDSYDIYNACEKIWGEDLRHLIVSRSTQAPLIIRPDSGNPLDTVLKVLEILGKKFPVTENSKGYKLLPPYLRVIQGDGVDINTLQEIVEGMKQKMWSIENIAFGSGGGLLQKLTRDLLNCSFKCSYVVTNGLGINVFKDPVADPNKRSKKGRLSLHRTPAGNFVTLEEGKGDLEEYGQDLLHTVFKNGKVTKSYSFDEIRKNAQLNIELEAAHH
Background: Time-resolved FRET reads energy transfer from a long-lived donor to a nearby acceptor.

The target of experiment [1] is NAMPT (human, recombinant, C-terminally His-tagged) (Homo sapiens, UniProt P43490). In words: Time-Resolved Fluorescence Resonance Energy Transfer (TR-FRET) Binding Assay of NAMPT. The note with it: absence of substrates; 6.8 nM NAMPT, 200 nM probe, equilibrated 3 hours. The essentials: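 Compounds (typically 11 half-log dilutions, 2% DMSO final) equilibrated 3 h at room temperature with 6.8 nM human C-His NAMPT, 1 nM Tb-anti-His antibody and 200 nM fluorescent competitive probe in pH 7.5 HEPES buffer. IC50 derived by logistic fit of normalized TR-FRET ratio (520/495 nm).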
NAMPT (human, recombinant, C-terminally His-tagged), sequence (P43490 whole entry): as above

The structures appear in SMILES notation.

As to `CC(C)CCN(C(=O)COc1ccccc1)c1ncc(C(=O)NCCCn2ccnc2)s1` [Example 136, N-[3-(1H-imidazol-1-yl)propyl]-2-[(3-methylbutyl)(phenoxyacetyl)amino]-1,3-thiazole-5-carboxamide], the half-inhibitory concentration (IC50) worked out at 0.000174 µM on NAMPT and 0.0244 µM in experiment [1].
Consider `CC(C)CCN(C(=O)CCc1ccccc1)c1ncc(C(=O)NCCCn2ccnc2)s1` [Example 137, N-[3-(1H-imidazol-1-yl)propyl]-2-[(3-methylbutyl)(3-phenylpropanoyl)amino]-1,3-thiazole-5-carboxamide], for which the results for the IC50 (at NAMPT; in experiment [1]) were 0.000236 µM and 0.0402 µM, respectively.
For the compound `CC(C)CCN(C(=O)C(C)c1ccccc1)c1ncc(C(=O)NCCCn2ccnc2)s1` (stereo not shown) [Example 138, N-[3-(1H-imidazol-1-yl)propyl]-2-[(3-methylbutyl)(2-phenylpropanoyl)amino]-1,3-thiazole-5-carboxamide], the IC50 was determined as 0.000541 µM on NAMPT and 0.0555 µM in experiment [1].
For the compound `CC(C)CCN(C(=O)Cc1ccc(F)cc1)c1ncc(C(=O)NCCCn2ccnc2)s1` [Example 139, 2-{[(4-fluorophenyl)acetyl](3-methylbutyl)amino}-N-[3-(1H-imidazol-1-yl)propyl]-1,3-thiazole-5-carboxamide], the IC50 on NAMPT was 0.000251 µM; in experiment [1], 0.0561 µM.
Take `N#Cc1ccc(CN(C(=O)NCCC(N)=O)c2ncc(C(=O)NCCCn3ccnc3)s2)cc1` [Example 140, 2-{[(3-amino-3-oxopropyl)carbamoyl](4-cyanobenzyl)amino}-N-[3-(1H-imidazol-1-yl)propyl]-1,3-thiazole-5-carboxamide]: the IC50 on NAMPT is 0.0223 µM; in experiment [1], greater than 10 µM.
Take `CC(=O)NCC(C)CNC(=O)N(Cc1ccc(C#N)cc1)c1ncc(C(=O)NCCCn2ccnc2)s1` (stereo not shown) [Example 141, 2-[{[3-(acetylamino)-2-methylpropyl]carbamoyl}(4-cyanobenzyl)amino]-N-[3-(1H-imidazol-1-yl)propyl]-1,3-thiazole-5-carboxamide]: the IC50 on NAMPT is 0.0231 µM; in experiment [1], greater than 10 µM.
With `CN(C)C(=O)CCNC(=O)N(Cc1ccc(C#N)cc1)c1ncc(C(=O)NCCCn2ccnc2)s1` [Example 142, 2-[(4-cyanobenzyl){[3-(dimethylamino)-3-oxopropyl]carbamoyl}amino]-N-[3-(1H-imidazol-1-yl)propyl]-1,3-thiazole-5-carboxamide], the concentration for half-maximal inhibition (IC50) was determined as 0.0169 µM at NAMPT and 6.04 µM in experiment [1].
As for `CCOCC(O)CNC(=O)N(Cc1ccc(C#N)cc1)c1ncc(C(=O)NCCCn2ccnc2)s1` (stereo not shown) [Example 143, 2-{(4-cyanobenzyl)[(3-ethoxy-2-hydroxypropyl)carbamoyl]amino}-N-[3-(1H-imidazol-1-yl)propyl]-1,3-thiazole-5-carboxamide], the 50% inhibitory concentration (IC50) was 0.0137 µM at NAMPT and greater than 10 µM in experiment [1].
Consider `CCN(CC)CCCNC(=O)N(Cc1ccc(C#N)cc1)c1ncc(C(=O)NCCCn2ccnc2)s1` [Example 144, 2-[(4-cyanobenzyl){[3-(diethylamino)propyl]carbamoyl}amino]-N-[3-(1H-imidazol-1-yl)propyl]-1,3-thiazole-5-carboxamide], for which the results for the half-inhibitory concentration (IC50) (on NAMPT; in experiment [1]) were 0.0332 µM and greater than 10 µM, respectively.
As to `CC(=O)NCCNC(=O)N(Cc1ccc(C#N)cc1)c1ncc(C(=O)NCCCn2ccnc2)s1` [Example 145, 2-[{[2-(acetylamino)ethyl]carbamoyl}(4-cyanobenzyl)amino]-N-[3-(1H-imidazol-1-yl)propyl]-1,3-thiazole-5-carboxamide], the half-inhibitory concentration (IC50) on NAMPT was 0.107 µM; in experiment [1], greater than 10 µM.
As to `CCN(CC)CCNC(=O)N(Cc1ccc(C#N)cc1)c1ncc(C(=O)NCCCn2ccnc2)s1` [Example 146, 2-[(4-cyanobenzyl){[2-(diethylamino)ethyl]carbamoyl}amino]-N-[3-(1H-imidazol-1-yl)propyl]-1,3-thiazole-5-carboxamide], the IC50 at NAMPT is 0.098 µM; in experiment [1] it was greater than 10 µM.

By IC50 is commonly meant the point on the concentration scale where inhibition reaches its midpoint.
